{"source": "patent US12029682B2", "about": "“Spray ejector mechanisms and devices providing charge isolation and controllable droplet charge, and low dosage volume ophthalmic administration” (EYENOVIA, INC., priority 2012, dated 2024)", "type_in_all_cases": "in vivo, beagle dog", "key": {"glaucomatous beagles [1]": {"tested_on": "glaucomatous beagles", "experiment": "Pupil diameter (PD), Jameson Caliper, in glaucomatous beagles"}, "glaucomatous beagles [2]": {"tested_on": "glaucomatous beagles", "experiment": "Intraocular pressure (IOP), TonoVet, in glaucomatous beagles"}, "glaucomatous beagles [3]": {"tested_on": "glaucomatous beagles", "experiment": "Intraocular pressure (IOP), TonoVet, in glaucomatous beagles", "details": "including control of morning IOP spike", "method": "(§1) One glaucomatous beagle dog (female, aged 3 years) from the University of Florida MacKay Colony of Glaucomatous Beagles was chosen for this study. The animal was rested a minimum of one week before starting the study. Prior to the commencement of the study, the animal was assigned one eye to receive 1.5 μl of 0.005% latanoprost and the contralateral eye to remain untreated as a control. The basic measurement protocol was followed at all times and performed by the same operator. PD was measured via Jameson Caliper (mm horizontally). IOP was measured using a TonoVet instrument with clean probe (iCare). IOP and PD were measured at time 0, 1, 2, 4, 7 and 18 hours daily for two days. Immediately after the time 0 measurement, the animal received 1.5 μl of 0.005% latanoprost in its assigned eye with a spray device. The contralateral eye was left untreated. The spray device was checked for accuracy before and after every use, and required a 10% delivered dose accuracy in pretreatment. Standard measurements continued throughout each day at time 1, 2, 4, 7 and 18 hours. Possible endpoints included, but were not limited to, excessive ocular irritation, ocular damage, and other illness or injury. No statistical crossover was utilized for this study.\nas §1, with “study.” for “study. The animal was rested a minimum of one week before starting the study.”, “receive 3.0” for “receive 1.5”, “0 measurements,” for “0 measurement,”, “animal was administered 3.0” for “animal received 1.5”, “eye using” for “eye with”, “spray ejector” for “spray”\nAll animals were rested for a minimum of one week before starting the trials. IOP and pupil diameter (PD) were measured 5 times (at 0, 1, 2, 4, and 7 hours) daily for four days (study days 1-4) to establish initial baseline levels. The basic measurement protocol was followed at all times and performed by the same operator. PD was measured via Jameson Caliper (mm horizontally). IOP was measured with a TonoVet instrument with clean probe (iCare). After three rest days, one eye was randomly assigned to receive 9 μl of 0.005% latanoprost delivered via a spray ejector device, and the contralateral eye was administered traditional latanoprost from a traditional eyedropper container (26-30 μl).\nOn study days 5-9, IOP and PD measurements were taken at approximately 0900 h (time 0). Immediately after time 0 measurements, each animal received a once-daily dose of 9 μl of generic 0.005% latanoprost in its assigned eye via the spray ejector device. The contralateral eye received a clinical dose (one drop) of the same commercially available topical drug from a traditional eyedropper (positive control). The spray ejector device was checked for accuracy before and after every use and required a 10% delivered dose accuracy in pretreatment. Standard measurements continued throughout each day at 0, 1, 2, 4, and 7 hours. Possible endpoints included, but were not limited to, excessive ocular irritation, ocular damage, and other illness or injury. No statistical crossover was utilized for this study. […]"}, "glaucomatous beagles [4]": {"tested_on": "glaucomatous beagles", "experiment": "Ocular irritation observations in glaucomatous beagles", "method": "Active drug delivery begins on study day eight. For five days, IOP and PD measurements are taken at 0900. Immediately after 0900 measurements (time 0), each animal receives 6 μl of generic latanoprost in its assigned eye with the ejector device, followed by a second dosing 3 minutes later of an additional 6 μl (to avoid overloading the conjunctival sac). The contralateral eye receives a clinical dose (one drop) of the same commercially-available topical drug from FDA approved container (positive control). The ejector device is checked for accuracy before and after every use (Table 1). Standard measurements continue throughout each day (at 0:30, 0:45, 1, 2, 7 hrs). Possible endpoints include, but are not limited to, excessive ocular irritation, ocular damage, or other illness and injury. […]\nOn study days 5-9, IOP and PD measurements were taken at approximately 0900 h (time 0). Immediately after these measurements, each animal received 6 μl of 0.03% bimatoprost in its assigned eye via the spray ejector device. The contralateral eye received a clinical dose (one drop) of the same commercially available topical drug from a traditional eyedropper (positive control). The spray ejector device was checked for accuracy before and after every use and required a 10% delivered dose accuracy in pretreatment. Standard measurements continued throughout each day at 0, 1, 2, 4, and 7 hours. Possible endpoints included, but were not limited to, excessive ocular irritation, ocular damage, and other illness or injury. No statistical crossover was utilized for this study.\nOphthalmic examinations (slit lamp with fluorescein and indirect ophthalmoscopy) were performed on the eyes of each animal prior to Study Day 1. Ocular findings were scored according to the McDonald-Shadduck Score System. Ocular findings were recorded using a standardized data collection sheet. Macroscopic observations were recorded in accordance with the Draize Scale for Scoring Ocular Lesions. Animals were assigned treatments based on basic randomization prior to study day one.\nFollowing a 7 day rest period, the eye choice was reversed. Measurements of IOP, heart rate and pupil diameter (PD) were made at 0:15, 0:30, 0:45, 1, 2, 4, 7, and 18 hours in the primary and crossover study. A veterinary ophthalmologist evaluated each test subject before and after the study for evidence of ocular side effects.\nOphthalmic examinations (slit lamp with fluorescein and indirect ophthalmoscopy) were performed on the eyes of each animal prior to study day 1. Ocular findings were scored according to the McDonald-Shadduck score system and macroscopic observations were recorded in accordance with the Draize scale for scoring ocular lesions. Ocular findings were recorded using a standardized data collection sheet."}, "[5]": {"details": "0.0005%, 0.002%, positively charged, 3 mcl"}, "[6]": {"details": "9 μl of 0.004% via spray ejector device, study day 1"}}, "note": "“Also recorded” adds a separate entry of the source."}
{"smiles": "CC(C)OC(=O)CCC/C=C\\C[C@@H]1[C@@H](/C=C/[C@@H](O)COc2cccc(C(F)(F)F)c2)[C@H](O)C[C@@H]1O", "note": "[travoprost]", "values": [{"measurement": "decrease of pupillary diameter compared to uncharged droplets", "setting": "glaucomatous beagles [1]; [5]", "result": "less decrease of pupillary diameter"}, {"measurement": "maximum miosis", "setting": "glaucomatous beagles [1]; 9 μl of 0.004% via spray ejector device, at time 12 hours", "result": 1.17, "unit": "mm"}, {"measurement": "time of significant PD changes", "setting": "glaucomatous beagles [1]; [6]", "result": 12, "unit": "h"}, {"measurement": "IOP lowering compared to uncharged droplets", "setting": "glaucomatous beagles [2]; [5]", "result": "greater IOP lowering"}, {"measurement": "IOP values vs baseline", "setting": "glaucomatous beagles [2]; 0.004%, both treatments (18 μl spray ejector device, eyedropper)", "result": "much lower than baseline for a full 24 hours"}, {"measurement": "IOP lowering compared to uncharged droplets", "setting": "glaucomatous beagles [2]; 0.004%, positively and negatively charged", "result": "greater IOP lowering"}, {"measurement": "IOP lowering", "setting": "glaucomatous beagles [2]; 3 microliters, 0.002% and 0.0005%, spray ejector device with controllable droplet charge", "result": "greater IOP lowering"}, {"measurement": "spray ejector device vs micropipette treatment", "setting": "glaucomatous beagles [2]; 9 μl of 0.004% each, throughout the study (p=0.7546)", "result": "no statistically significant differences"}, {"measurement": "highest average daily peak IOP", "setting": "glaucomatous beagles [2]; 9 μl of 0.004% via spray ejector device, after 5 days of treatment", "result": 18.83, "unit": "mmHg"}, {"measurement": "time of significant changes in IOP from baseline", "setting": "glaucomatous beagles [2]; [6]", "result": 12, "unit": "h"}, {"measurement": "post-treatment IOP", "setting": "glaucomatous beagles [2]; 18 μl morning or evening dose via spray ejector device / traditional therapy", "result": "below 20 mmHg"}, {"measurement": "effectiveness at lowering/controlling IOP vs traditional therapy", "setting": "glaucomatous beagles [2]; 18 μl of 0.004% once daily, morning or evening, via spray ejector device vs one drop (average 26 μl)", "result": "as effective at lowering IOP and constricting the pupil as the traditional therapy; also recorded: as effective at controlling IOP as traditional therapy"}, {"measurement": "difference in duration of IOP lowering, spray ejector device vs eyedropper", "setting": "glaucomatous beagles [2]; 18 μl of 0.004% vs one drop", "result": "not significant"}, {"measurement": "duration of IOP lowering", "setting": "glaucomatous beagles [2]; controllable droplet charge spray administration, 1xqd@hs dosing", "result": "full 24 hour IOP lowering"}, {"measurement": "lowering of IOP over a 24 hour period compared with other prostaglandin agonists studied", "setting": "glaucomatous beagles [3]", "result": "most effective of the prostaglandin agonists studied"}, {"measurement": "excessive eye irritation or other eye issues", "setting": "glaucomatous beagles [4]; 9 μl of 0.004%, spray ejector device and micropipette", "result": "no reports of excessive eye irritation or other eye issues"}, {"measurement": "irritation vs eyedropper-treated eyes", "setting": "glaucomatous beagles [4]; 18 μl of 0.004% via spray ejector device", "result": "less than that observed in the eyedropper-treated eyes"}]}
